Reference: paper PMC7051966, “Substrate Specific Inhibitor Designed against the Immunomodulator GMF-beta Reversed the Experimental Autoimmune Encephalomyelitis” (Scientific Reports, 2020)

Molecular target: T1, hGMF-β (human glia maturation factor-β) (Homo sapiens, UniProt P60983)
T1 construct: gene GMFB; amine-coupled to CM5 chip
Test: SPR (Biacore T200), GMF-β immobilised on CM5 chip, […] fit
Format: binding

T1 sequence (P60983 2-142): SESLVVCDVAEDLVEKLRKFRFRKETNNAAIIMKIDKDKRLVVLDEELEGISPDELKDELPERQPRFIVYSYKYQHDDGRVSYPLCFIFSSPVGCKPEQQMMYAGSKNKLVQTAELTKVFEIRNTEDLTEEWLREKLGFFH

With `OCc1cccc2[nH]ncc12` [II, 1-H-indazole-4yl methanol] the Kd was 20 µM.
